Measured values taken from US6111069A, “Polypeptides that include conformation-constraining groups which flank a protein-protein interaction site” (Virginia Commonwealth University, priority 1997, dated 2000).
Where a SMILES comes first, the peptide text is derived from it.

Legend:
[1] = tested on: receptors of sweet tasting papillae; settings: comparison value; cited from earlier work
[2] = Preliminary studies of hypotensive peptide versus diltiazem (diastolic pressure, arrhythmia); format: in vivo, rat
Method: 60 to 120 μg per rat (5 to 10 μM).

Compound	Sweetness relative to sugar [1]	Effect on diastolic pressure [2]
COC(=O)[C@H](Cc1ccccc1)NC(=O)[C@@H](N)CC(=O)O [aspartame] (H-Asp-Phe-OMe)	160 times sweeter than sugar	
CSCC[C@H](NC(=O)[C@H](C)NC(=O)[C@@H](NC(=O)[C@@H]1CCCN1C(=O)[C@H](C)N)[C@@H](C)O)C(=O)N[C@@H](Cc1c[nH]c2ccccc12)C(=O)N1CCC[C@H]1C(=O)N[C@@H](C)C(=O)O [HP-1, Ala-Pro-Thr-Ala-Met-Trp-Pro-Ala] (H-APTAMWPA-OH)		does not increase diastolic pressure
